# Read-outs that look alike come from different tables or passages of the source.
# What was measured:
# thermophilic bacteria [1] = assay: pH drop (acid formation) in liquid culture medium inoculated with crude juice from sugar beet extraction, 65° C.; format: cell-based, thermophilic bacteria (mixed culture); details: 65° C.; for pH / ΔpH/h: 10 mg/l added at pH 6.47 (5.10 h)
# Description: If a sugar-containing substrate, e.g. a sugar-containing liquid culture medium, as it is common in microbiology, is either non-sterilized or incubated after inoculation with a bacterial strain, an acid formation will occur which is the easiest to recognize by a drop in the pH. The same phenomenon will occur when incubating normal sugar-containing plant juices, e.g. beet juice. In an industrial process, e.g. in the recovery of sugar juice from sugar beets, a drop in the pH by degradation of sugar means a loss of sugar and a need for an alkalizing agent. Moreover, a drop in the pH with an increase in the germ content in the substrate often is associated with an unpleasant gas and nitrite formation.
# (§1) A liquid culture medium, as commonly used in microbiology and consisting of 10 g of Bacto-peptone, 5 g of meat extract, 5 g of yeast extract, 1 g of glucose, 1 g of K2HPO4, 0.1 g of MgSO4*7H2O and 0.01 g of FeSO4*7H2O per liter of distilled water, is sterilized in conventional manner for 20 min at 120° C. and inoculated, in a vessel kept at a temperature of 65° C., with 20 ml of crude juice from a large-scale sugar beet extraction, wherein the pH is registered on a recorder. Upon the growth of thermophilic bacteria, the pH drops progressively. This indicates a microorganism-caused acid formation.
# A mixed culture according to Example 1 is prepared.
# [2] = tested on: pure culture strain DSMZ 457; assay: pH drop in liquid culture medium inoculated with pure culture strain; format: cell-based
# Description: as §1
# A liquid culture medium, as in Example 1, is inoculated with a pure culture strain DSMZ 457 of the Deutsche Sammlung für Mikroorganismen und Zellkulturen GmbH. A pH drop starting after 1 hour can be stopped by two additions of 0.2 ml of a 1% alcoholic solution of myristic acid (C14), corresponding to a concentration of merely 4 mg/l. After 4 hours, a renewed pH drop starts which can be stopped for further 7 hours by a further addition of 2 mg/l, i.e. in sum 6 mg/l.
# mesophilic mixed culture = assay: pH drop in mixed culture incubated at 35° C.; format: cell-based
# Description: as §1
# A mixed culture according to Example 1 is prepared, yet incubated at 35° C. A pH drop starting after 5 hours cannot be stopped by 11 successive additions of 1 ml of a 1% alcoholic solution of myristic acid per liter culture, corresponding to 110 mg/l, and a further addition of 4 ml, i.e. in sum 150 mg/l.
# thermophilic bacteria [3] = assay: determination of MIC by stepwise addition until stabilization of the pH, 65° C.; format: cell-based, thermophilic bacteria (mixed culture)
# Description: To illustrate the antimicrobial activity within the scope of sugar production, examples are carried out with […] compounds by way of example. […] Upon the growth of thermophilic bacteria, the pH drops progressively. This indicates a microorganism-caused acid formation. […] The fatty acid compounds used in this Example are myristic acid and lauric acid, and their potassium salts, respectively. In this case, the acids were used both individually and in a 1:1 mixture, the salts were exclusively used in a 1:1 mixture.
# yeasts = assay: efficacy relative to yeasts; format: cell-based; details: compared with thermophilic bacteria
# [4] = Time 4.50 h, 2×2 mg/l added between pH 6.81 and 6.51
# [5] = Time 6.25 h, 11×10 and 1×40 mg/l being added between pH 6.55 and 6.30
# [6] = Time 6.50 h, 11×10 and 1×40 mg/l added between pH 6.55 and 6.30
smiles,measurement,setting,value
CCCCCCCCCCCCCC(=O)O [myristic acid],duration of effectiveness (pH drop stopped),"thermophilic bacteria [1]; 10 mg/l, mixed culture",at least 14 h
same,effect on pH drop,"thermophilic bacteria [1]; 10 mg/l, mixed culture",suddenly and lastingly stopped
same,pH,thermophilic bacteria [1]; Time 5.50 h,6.47
same,ΔpH/h,thermophilic bacteria [1]; Time 5.50 h,0.00
same,pH,thermophilic bacteria [1]; Time 6 h,6.47
same,ΔpH/h,thermophilic bacteria [1]; Time 6 h,0.00
same,pH,thermophilic bacteria [1]; Time 7 h,6.48
same,ΔpH/h,thermophilic bacteria [1]; Time 7 h,−0.01
same,pH,thermophilic bacteria [1]; Time 10 h,6.50
same,ΔpH/h,thermophilic bacteria [1]; Time 10 h,−0.01
same,pH,thermophilic bacteria [1]; Time 13 h,6.53
same,ΔpH/h,thermophilic bacteria [1]; Time 13 h,−0.01
same,pH,thermophilic bacteria [1]; Time 16 h,6.55
same,ΔpH/h,thermophilic bacteria [1]; Time 16 h,−0.01
same,pH,thermophilic bacteria [1]; Time 19 h,6.53
same,ΔpH/h,thermophilic bacteria [1]; Time 19 h,0.01
same,time until renewed pH drop,[2]; 4 mg/l,4 hours
same,pH,[2]; [4],6.51
same,ΔpH/h,[2]; [4],0.60
same,pH,"[2]; Time 5 h, 4 mg/l",6.50
same,ΔpH/h,"[2]; Time 5 h, 4 mg/l",0.02
same,pH,"[2]; Time 6 h, 4 mg/l",6.51
same,ΔpH/h,"[2]; Time 6 h, 4 mg/l",−0.01
same,pH,"[2]; Time 7 h, 4 mg/l",6.51
same,ΔpH/h,"[2]; Time 7 h, 4 mg/l",0.00
same,pH,"[2]; Time 8 h, 4 mg/l",6.51
same,ΔpH/h,"[2]; Time 8 h, 4 mg/l",0.00
same,pH,"[2]; Time 9 h, 4 mg/l",6.48
same,ΔpH/h,"[2]; Time 9 h, 4 mg/l",0.03
same,ΔpH/h,"[2]; Time 10.2 h, 4 mg/l, further 2 mg/l added at pH 6.39",0.08
same,pH,"[2]; Time 10.2 h, 4 mg/l, further 2 mg/l added at this pH",6.39
same,pH,"[2]; Time 11 h, in sum 6 mg/l",6.39
same,ΔpH/h,"[2]; Time 11 h, in sum 6 mg/l",0.00
same,pH,"[2]; Time 12 h, in sum 6 mg/l",6.39
same,ΔpH/h,"[2]; Time 12 h, in sum 6 mg/l",0.00
same,pH,"[2]; Time 13 h, in sum 6 mg/l",6.39
same,ΔpH/h,"[2]; Time 13 h, in sum 6 mg/l",0.00
same,pH,"[2]; Time 14 h, in sum 6 mg/l",6.39
same,ΔpH/h,"[2]; Time 14 h, in sum 6 mg/l",0.00
same,pH,"[2]; Time 15 h, in sum 6 mg/l",6.39
same,ΔpH/h,"[2]; Time 15 h, in sum 6 mg/l",0.00
same,further time pH drop stopped,"[2]; further 2 mg/l, in sum 6 mg/l",7 hours
same,concentration that stops the pH drop,"[2]; two additions of 2 mg/l, pure culture",4 mg/l
same,pH,mesophilic mixed culture; [5],6.41
same,ΔpH/h,mesophilic mixed culture; [5],0.56
same,pH,mesophilic mixed culture; [6],6.30
same,ΔpH/h,mesophilic mixed culture; [6],0.44
same,pH,"mesophilic mixed culture; Time 6.75 h, in sum 150 mg/l",6.19
same,ΔpH/h,"mesophilic mixed culture; Time 6.75 h, in sum 150 mg/l",0.44
same,pH,"mesophilic mixed culture; Time 7.00 h, in sum 150 mg/l",6.06
same,ΔpH/h,"mesophilic mixed culture; Time 7.00 h, in sum 150 mg/l",0.52
same,pH,"mesophilic mixed culture; Time 7.25 h, in sum 150 mg/l",5.94
same,ΔpH/h,"mesophilic mixed culture; Time 7.25 h, in sum 150 mg/l",0.48
same,concentration that stops the pH drop,mesophilic mixed culture; pH drop cannot be stopped,> 150 mg/l
same,MIC,"thermophilic bacteria [3]; dissolved in ethanol, 10 mg/l steps, maximum 150 mg/l, 65° C., read-out: Min. Inhibitory Conc. (MIC)",10 µg/mL
same,MIC,"thermophilic bacteria [3]; dissolved in ethanol, steps of 2 mg/l, read-out: Min. Inhibitory Conc. (MIC)",6 µg/mL
same,MIC,"thermophilic bacteria [3]; text summary of Example 9, read-out: MIC (concentration successfully used)",6000 µg/mL
same,efficacy relative to yeasts,yeasts,markedly lower efficacy
